Reference: US10858365B2, “Triazolo-pyrimidine compounds and uses thereof” (Dizal (Jiangsu) Pharmaceutical Co., Ltd., priority 2018, dated 2020)

How the values were obtained:
hA3 = hA3 (Homo sapiens (Human), UniProt P0DMS8); experiment: cAMP & FLIPR inhibition, hA3 over-expressing cell line; assay type: cell-based
From the text: FLIPR™ and cAMP inhibition activities of exemplary compounds in different adenosine receptor over-expressing cell lines are shown in Table 4 below.

hA2b = hA2b (Homo sapiens (Human), UniProt P29275); experiment: cAMP inhibition assay in hA2b/CHO cells; assay type: cell-based; details: adenosine stimulation, read-out: cAMP & FLIPR IC50 (nM) hA2b
Sequence of hA2b (P29275 whole entry): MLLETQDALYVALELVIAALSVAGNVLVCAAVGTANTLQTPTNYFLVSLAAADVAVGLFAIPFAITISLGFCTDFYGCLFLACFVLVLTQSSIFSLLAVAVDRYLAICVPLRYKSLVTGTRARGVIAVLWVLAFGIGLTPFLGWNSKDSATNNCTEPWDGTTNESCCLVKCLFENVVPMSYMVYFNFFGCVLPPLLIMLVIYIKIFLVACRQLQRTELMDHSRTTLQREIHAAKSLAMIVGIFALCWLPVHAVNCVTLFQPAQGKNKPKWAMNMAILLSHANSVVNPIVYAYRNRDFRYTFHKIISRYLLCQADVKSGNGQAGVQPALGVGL
Procedure: (§1) hA2a/CHO, hA2b/CHO and mA2a/CHO (Genscript) were plated at 5×10^3 cells/well into 384-well polystyrene plates at the day of experiment. Compounds were pre-incubated with cells for 30 min at 37° C., 5% CO2. Then […] adenosine was added to the cells and incubated for 30 min at 37° C., 5% CO2. Detection reagent (CISBIO) was added and the plates were incubated for 60 min at room temperature. The signal was captured by Envision.

mA2a = mA2a (Mus musculus (Mouse), UniProt Q60613); experiment: cAMP inhibition assay in mA2a/CHO cells; assay type: cell-based; details: adenosine stimulation, read-out: cAMP & FLIPR IC50 (nM) mA2a
Sequence of mA2a (Q60613 whole entry): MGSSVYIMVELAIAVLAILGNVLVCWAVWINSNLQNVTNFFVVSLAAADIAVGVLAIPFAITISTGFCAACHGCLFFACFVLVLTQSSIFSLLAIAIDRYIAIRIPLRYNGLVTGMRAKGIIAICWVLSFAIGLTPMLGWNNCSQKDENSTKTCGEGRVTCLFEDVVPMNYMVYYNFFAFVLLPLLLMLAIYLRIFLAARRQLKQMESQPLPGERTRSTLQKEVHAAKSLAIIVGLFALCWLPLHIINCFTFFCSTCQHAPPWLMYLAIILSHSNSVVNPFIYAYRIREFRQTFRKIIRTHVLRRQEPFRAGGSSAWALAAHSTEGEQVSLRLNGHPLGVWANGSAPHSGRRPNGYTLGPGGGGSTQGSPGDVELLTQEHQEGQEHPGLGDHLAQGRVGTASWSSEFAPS
Procedure: as §1

hA2a [1] = molecular target: T1, hA2a (Homo sapiens (Human), UniProt P29274); experiment: cAMP inhibition assay in hA2a/CHO cells; assay type: cell-based; details: adenosine stimulation, read-out: cAMP & FLIPR IC50 (nM) hA2a
T1 sequence (P29274 whole entry): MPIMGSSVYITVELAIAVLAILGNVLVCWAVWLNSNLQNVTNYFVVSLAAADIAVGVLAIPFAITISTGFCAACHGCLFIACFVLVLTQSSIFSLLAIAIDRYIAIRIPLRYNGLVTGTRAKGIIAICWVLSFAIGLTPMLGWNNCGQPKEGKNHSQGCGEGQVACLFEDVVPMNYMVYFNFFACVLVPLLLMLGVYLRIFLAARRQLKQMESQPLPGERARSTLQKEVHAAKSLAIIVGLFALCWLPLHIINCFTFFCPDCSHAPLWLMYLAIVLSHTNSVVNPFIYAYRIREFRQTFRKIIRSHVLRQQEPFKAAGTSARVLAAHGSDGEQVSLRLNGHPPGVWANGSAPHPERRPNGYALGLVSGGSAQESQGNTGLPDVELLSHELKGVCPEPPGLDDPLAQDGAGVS
How it was run: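 CHO cells expressing human A2a, human A2b or mouse A2a, 5×10^3 cells/well, pre-incubated with compound 30 min at 37 °C, then stimulated with […] adenosine 30 min at 37 °C. cAMP read after 60 min room-temperature incubation with detection reagent.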

hA1 [2] = molecular target: T2, hA1 (Homo sapiens (Human), UniProt P30542); experiment: FLIPR inhibition assay in hADORA1/CHO (hA1 expressing) cells; assay type: cell-based; details: hADORA1/CHO cells, FLIPR calcium, adenosine stimulation; read-out: cAMP & FLIPR IC50 (nM) hA1
T2 sequence (P30542 whole entry): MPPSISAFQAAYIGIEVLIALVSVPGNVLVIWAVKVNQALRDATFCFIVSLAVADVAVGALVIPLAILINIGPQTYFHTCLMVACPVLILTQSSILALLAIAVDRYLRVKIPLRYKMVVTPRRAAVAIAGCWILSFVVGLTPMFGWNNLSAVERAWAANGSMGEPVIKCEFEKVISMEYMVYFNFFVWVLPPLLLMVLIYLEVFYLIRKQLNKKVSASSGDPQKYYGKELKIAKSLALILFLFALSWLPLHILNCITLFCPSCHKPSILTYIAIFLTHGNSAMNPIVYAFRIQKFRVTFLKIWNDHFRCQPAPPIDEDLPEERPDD
How it was run: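 CHO cells expressing human A1 were plated at 1×10^4 cells/well the day before, then loaded with FLIPR Calcium 5 dye for 60 min at 37 °C, 5% CO2. Compounds were added at several concentrations for 400 s before stimulation with […] adenosine. The calcium signal was recorded by FLIPR.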

hA2a [3] = molecular target: T1, hA2a; experiment: Radioligand binding to hA2a membrane ([3H]-CGS21680); details: [3H]-CGS21680, 90 min at 25° C., read-out: Binding Affinity (IC50 nM) hA2a
Procedure: (§2) Binding affinity and specificities of the compounds against different subtype of human adenosine receptors (hA1, hA2A, hA2B and hA3) were characterized with cell membrane chromatography binding analysis.
(§3) The compounds at different concentrations were incubate with hA2a membrane (from PerkinElmer) and [^3H]-CGS21680 for 90 min at 25° C., meanwhile 100 μL 0.5% PEI solution was added into […]-96 GF/B filter plate for 60 min at 4° C., then […]-96 GF/B filter plate was washed twice with 50 ml wash buffer, the membrane mix was transferred into […]-96 GF/B filter plate, and the filter plate was washed 4 times before incubated at 55° C. for 10 min. At last, […] ULTIMA GOLD was added into each well, and CPM was read by TopCount.
(§4) The empty boxes in the tables below indicate data not available.

hA1 [4] = molecular target: T2, hA1; experiment: Radioligand binding to hA1 membrane ([3H]-DPCPX); details: 50 min at 25° C., read-out: Binding Affinity (IC50 nM) hA1
Procedure: as §2
as §3, with “hA1” for “hA2a”, “[^3H]-8-Cyclopentyl-1,3-dipropylxanthine (DPCPX)” for “[^3H]-CGS21680”, “50” for “90”
as §4

Sequence of hA3 (P0DMS8 whole entry): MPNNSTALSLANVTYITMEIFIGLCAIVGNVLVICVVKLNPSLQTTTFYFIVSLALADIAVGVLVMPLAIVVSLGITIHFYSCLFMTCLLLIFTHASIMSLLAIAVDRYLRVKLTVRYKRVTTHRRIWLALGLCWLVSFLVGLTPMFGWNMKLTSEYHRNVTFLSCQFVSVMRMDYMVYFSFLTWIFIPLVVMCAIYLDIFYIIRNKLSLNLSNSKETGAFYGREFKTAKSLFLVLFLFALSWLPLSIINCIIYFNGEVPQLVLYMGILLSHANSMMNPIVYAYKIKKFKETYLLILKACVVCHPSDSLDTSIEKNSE

With `Cc1cc(-c2c(-c3ccc(F)cc3)nc(N)n3nc(Cc4ncccc4F)nc23)cc(C)n1` [Example 14] the IC50 (hA3) was greater than 10000 nM, the IC50 (hA2b) was 2240 nM and the IC50 (mA2a) was 18 nM. For the same compound, the IC50 (hA2a [1]) was 6.9 nM and the IC50 (hA1 [2]) was 97 nM.
For `Cn1cc(-c2c(-c3ccc(C(F)F)cc3)nc(N)n3nc(Cc4ncccc4F)nc23)ccc1=O` [Example 41, 5-(5-amino-7-(4-(difluoromethyl)phenyl)-2-((3-fluoropyridin-2-yl)methyl)-[1,2,4]triazolo[1,5-c]pyrimidin-8-yl)-1-methylpyridin-2(1H)-one], the IC50 (hA2b) was 259 nM, the IC50 (hA2a [3]) was 3.4 nM and the IC50 (hA1 [4]) was 2.2 nM. It also gave an IC50 (mA2a) of 189 nM, an IC50 (hA2a [1]) of 70 nM and an IC50 (hA1 [2]) of 17 nM.
Work on `Nc1nc(-c2ncco2)c(-c2ccnc(OC(F)F)c2)c2nc(Cc3c(F)cccc3F)nn12` [Example 85, 2-(2,6-difluorobenzyl)-8-(2-(difluoromethoxy)pyridin-4-yl)-7-(oxazol-2-yl)-[1,2,4]triazolo[1,5-c] pyrimidin-5-amine] yielded an IC50 (hA2b) of 48 nM, an IC50 (hA2a [3]) of 5.5 nM and an IC50 (hA1 [4]) of 5.4 nM. For the same compound, the IC50 (mA2a) was 11 nM, the IC50 (hA2a [1]) was 15 nM and the IC50 (hA1 [2]) was 27 nM.
With `COc1ccc(-c2nc(N)n3nc(Cc4ncccc4F)nc3c2-c2ccc(=O)n(C)c2)cc1` [Example 61, 5-(5-amino-2-((3-fluoropyridin-2-yl)methyl)-7-(4-methoxyphenyl)-[1,2,4]triazolo[1,5-c]pyrimidin-8-yl)-1-methylpyridin-2(1H)-one] the IC50 (hA2b) was 122 nM, the IC50 (hA2a [3]) was 4.2 nM and the IC50 (hA1 [4]) was 1.7 nM. It also gave an IC50 (mA2a) of 42 nM, an IC50 (hA2a [1]) of 28 nM and an IC50 (hA1 [2]) of 25 nM.
For `Cn1cc(-c2c(-c3cccc(Cl)c3)nc(N)n3nc(Cc4ncccc4F)nc23)ccc1=O` [Example 70, 5-(5-amino-7-(3-chlorophenyl)-2-((3-fluoropyridin-2-yl)methyl)-[1,2,4]triazolo[1,5-c]pyrimidin-8-yl)-l-methylpyridin-2(lH)-one], the IC50 (hA2b) was 68 nM, the IC50 (hA2a [3]) was 4.1 nM and the IC50 (hA1 [4]) was 0.8 nM. It also gave an IC50 (mA2a) of 13 nM, an IC50 (hA2a [1]) of 5.5 nM and an IC50 (hA1 [2]) of 14 nM.
`Cn1cc(-c2c(-n3nccn3)nc(N)n3nc(Cc4c(F)cccc4F)nc23)ccc1=O` [Example 25, 5-[5-amino-2-[(2,6-difluorophenyl)methyl]-7-(2H-1,2,3-triazol-2-yl)-[1,2,4]triazolo[1,5-c]pyrimidin-8-yl]-1-methyl-1,2-dihydropyridin-2-one] gave an IC50 (hA2b) of 582 nM, an IC50 (hA2a [3]) of 1.4 nM and an IC50 (hA1 [4]) of 7.9 nM. The IC50 (mA2a) was 30 nM, the IC50 (hA2a [1]) was 20 nM and the IC50 (hA1 [2]) was 21 nM.
Work on `Nc1nc(-c2ncco2)c(-c2ccc3nccn3c2)c2nc(Cc3ncccc3F)nn12` [Example 31, 2-((3-fluoropyridin-2-yl)methyl)-8-(imidazo[1,2-a]pyridin-6-yl)-7-(oxazol-2-yl)-[1,2,4]triazolo[1,5-c]pyrimidin-5-amine] yielded an IC50 (hA2b) of 80 nM, an IC50 (hA2a [3]) of 3 nM and an IC50 (hA1 [4]) of 137 nM. It also gave an IC50 (mA2a) of 51 nM, an IC50 (hA2a [1]) of 14 nM and an IC50 (hA1 [2]) of 188 nM.
Compound `Cn1cc(-c2c(-c3ncco3)nc(N)n3nc(Cc4c(F)cccc4F)nc23)ccc1=O` [Example 22, 5-(5-amino-2-(2,6-difluorobenzyl)-7-(oxazol-2-yl)-[1,2,4]triazolo[1,5-c]pyrimidin-8-yl)-1-methylpyridin-2(1H)-one] has an IC50 (hA2b) of 168 nM, an IC50 (hA2a [3]) of 12 nM and an IC50 (hA1 [4]) of 6.8 nM. The IC50 (mA2a) was 12 nM, the IC50 (hA2a [1]) was 8.2 nM and the IC50 (hA1 [2]) was 25 nM.
For `Nc1cccc(Cc2nc3c(-c4ccc5nccn5c4)c(-c4ccc(F)cc4)nc(N)n3n2)n1` [Example 37, 2-((6-aminopyridin-2-yl)methyl)-7-(4-fluorophenyl)-8-(imidazo[1,2-a]pyridin-6-yl)-[1,2,4]triazolo[1,5-c]pyrimidin-5-amine], the IC50 (hA2b) was 12 nM, the IC50 (hA2a [3]) was 6.3 nM and the IC50 (hA1 [4]) was 4 nM. For the same compound, the IC50 (mA2a) was 7.3 nM, the IC50 (hA2a [1]) was 1.8 nM and the IC50 (hA1 [2]) was 12 nM.
`Nc1nc(-c2ccc(F)cc2)c(-c2ccc3nccn3c2)c2nc(Cc3ncccc3F)nn12` [Example 32, 7-(4-fluorophenyl)-2-((3-fluoropyridin-2-yl)methyl)-8-(imidazo[1,2-a]pyridin-6-yl)-[1,2,4]triazolo [1,5-c]pyrimidin-5-amine] showed an IC50 (hA2b) of 19 nM, an IC50 (hA2a [3]) of 5.5 nM and an IC50 (hA1 [4]) of 3.4 nM. The IC50 (mA2a) was 5.4 nM, the IC50 (hA2a [1]) was 0.9 nM and the IC50 (hA1 [2]) was 28 nM.
Compound `Nc1nc(-c2ncco2)c(-c2ccnc(OC(F)F)c2)c2nc(Cc3ncccc3F)nn12` [Example 86, 8-(2-(difluoromethoxy)pyridin-4-yl)-2-((3-fluoropyridin-2-yl)methyl)-7-(oxazol-2-yl)-[1,2,4]triaz olo[1,5-c]pyrimidin-5-amine] has an IC50 (hA2b) of 83 nM, an IC50 (hA2a [3]) of 8.3 nM and an IC50 (hA1 [4]) of 21 nM. It also gave an IC50 (mA2a) of 48 nM, an IC50 (hA2a [1]) of 71 nM and an IC50 (hA1 [2]) of 59 nM.
Compound `Nc1nc(-n2nccn2)c(-c2ccc3nccn3c2)c2nc(Cc3ncccc3F)nn12` [Example 94, 2-[(3-fluoropyridin-2-yl)methyl]-8-[imidazo[1,2-a]pyridin-6-yl]-7-(2H-1,2,3-triazol-2-yl)-[1,2,4]triazolo[1,5-c]pyrimidin-5-amine] has an IC50 (hA2b) of 94 nM, an IC50 (hA2a [3]) of 3.5 nM and an IC50 (hA1 [4]) of 52 nM. It also gave an IC50 (mA2a) of 20 nM, an IC50 (hA2a [1]) of 7.7 nM and an IC50 (hA1 [2]) of 41 nM.
Compound `COc1cccc(-c2nc(N)n3nc(Cc4ncccc4F)nc3c2-c2ccc(=O)n(C)c2)c1` [Example 77, 5-(5-amino-2-((3-fluoropyridin-2-yl)methyl)-7-(3-methoxyphenyl)-[1,2,4]triazolo[1,5-c]pyrimidin-8-yl)-1-methylpyridin-2(1H)-one] has an IC50 (hA2b) of 51 nM, an IC50 (hA2a [3]) of 3.6 nM and an IC50 (hA1 [4]) of 1.4 nM. The IC50 (mA2a) was 17 nM, the IC50 (hA2a [1]) was 6.7 nM and the IC50 (hA1 [2]) was 13 nM.
With `Cn1cc(-c2c(-c3ccc(C(F)(F)F)cc3)nc(N)n3nc(Cc4ncccc4F)nc23)ccc1=O` [Example 62, 5-(5-amino-2-((3-fluoropyridin-2-yl)methyl)-7-(4-(trifluoromethyl)phenyl)-[l,2,4]triazolo[l,5-c]pyrimidin-8-yl)-l-methylpyridin-2(1H)-one] the IC50 (hA2b) was 602 nM, the IC50 (hA2a [3]) was 5.2 nM and the IC50 (hA1 [4]) was 5.1 nM. For the same compound, the IC50 (mA2a) was 318 nM, the IC50 (hA2a [1]) was 184 nM and the IC50 (hA1 [2]) was 27 nM.
For `Cc1c(-c2c(-c3ccc(F)cc3)nc(N)n3nc(Cc4ncccc4F)nc23)ccc(=O)n1C` [Example 66, 5-(5-amino-7-(4-fluorophenyl)-2-((3-fluoropyridin-2-yl)methyl)-[1,2,4]triazolo[1,5-c]pyrimidin-8-yl)-1,6-dimethylpyridin-2(1H)-one], the IC50 (hA2b) was 109 nM, the IC50 (hA2a [3]) was 7.2 nM and the IC50 (hA1 [4]) was 46 nM. For the same compound, the IC50 (mA2a) was 346 nM, the IC50 (hA2a [1]) was 31 nM and the IC50 (hA1 [2]) was 69 nM.
`Cc1cnc2ccc(-c3c(N(C)C)nc(N)n4nc(Cc5ncccc5F)nc34)cn12` [Example 100, 2-[(3-fluoropyridin-2-yl)methyl]-N7,N7-dimethyl-8-[3-methylimidazo[1,2-a]pyridin-6-yl]-[1,2,4]triazolo[1,5-c]pyrimidine-5,7-diamine] showed an IC50 (hA2b) of 38 nM, an IC50 (mA2a) of 3.5 nM and an IC50 (hA2a [1]) of 1.2 nM. For the same compound, the IC50 (hA1 [2]) was 11.8 nM.
Work on `CC(C)n1cc(-c2c(-c3ncco3)nc(N)n3nc(Cc4c(F)cccc4F)nc23)ccc1=O` [Example 79, 5-(5-amino-2-(2,6-difluorobenzy1)-7-(oxazol-2-yl)-[1,2,4]triazolo[1,5-c]pyrimidin-8-yl)-l-isopropylpyrdin-2(1H)-one] yielded an IC50 (hA2b) of 45 nM, an IC50 (mA2a) of 0.9 nM and an IC50 (hA2a [1]) of 0.7 nM. The IC50 (hA1 [2]) was 28 nM.
Compound `Cn1cc(-c2c(-c3cccc(F)c3)nc(N)n3nc(Cc4ncccc4F)nc23)ccc1=O` [Example 40, 5-(5-amino-7-(3-fluorophenyl)-2-((3-fluoropyridin-2-yl)methyl)-[1,2,4]triazolo[1,5-c]pyrimidin-8-yl)-1-methylpyridin-2(1H)-one] has an IC50 (hA2b) of 72 nM, an IC50 (mA2a) of 15 nM and an IC50 (hA2a [1]) of 5.2 nM. The IC50 (hA1 [2]) was 18 nM.
